Data reported in US4843087A (priority 1986, dated 1989).
≈ marks a conversion by molar mass, not a printed value.

Tests used:
Polio 2 = test: microbe, parasite or virus in culture; assay type: cell-based, poliovirus; settings: Enterovirus C, HeLa, read-out: Polio 2 MIC
[1] = system: human rhinovirus (HRV) serotypes; test: microbe, parasite or virus in culture; assay type: cell-based; settings: for MIC50: read-out: Rhinovirus MIC50; for IC (MIC80 of serotype panel): read-out: Rhinovirus MIC80

SMILES	MIC (Polio 2)	MIC50 [1]	IC (MIC80 of serotype panel) [1]
COc1cc(C(=O)NCCCl)cc(OC)c1OCCCCCc1cc(C)no1 [158(b), N-(2-Chloroethyl)-3,5-dimethoxy-4-{[5-(3-methyl-5-isoxazolyl)pentyl]oxy}benzamide]	2 µg/mL (≈ 4.87 µM)	1.73 µg/mL (≈ 4.21 µM)	4.7 µg/mL
COc1cc(C2=NCCO2)cc(OC)c1OCCCCCc1cc(C)no1 [158(d), 5-{5-[4-(4,5-Dihydro-2-oxazolyl)-2,6-dimethoxyphenoxy]pentyl}-3-methylisoxazole]	1 µg/mL (≈ 2.67 µM)	2.1 µg/mL (≈ 5.61 µM)	5 µg/mL
Cc1cc(CCCCCOc2c(F)cc(C3=NCCO3)cc2F)on1 [159(c), 5-{5-[4-(4,5-Dihydro-2-oxazolyl)-2,6-difluorophenoxy]-pentyl}-3-methylisoxazole]	0.12 µg/mL (≈ 0.342 µM)	0.15 µg/mL (≈ 0.428 µM)	0.66 µg/mL
Cc1cc(CCCCCOc2c(F)c(F)c(C3=NCCO3)c(F)c2F)on1 [161(c), 5-{5-[4-(4,5-Dihydro-2-oxazolyl)-2,3,5,6-tetrafluorophenoxy]pentyl}-3-methylisoxazole]	0.05 µg/mL (≈ 0.129 µM)	0.25 µg/mL (≈ 0.647 µM)	3.5 µg/mL
Cc1cc(CCCCCOc2c(Cl)cc(C(=O)NCCCl)cc2Cl)on1 [162(c), 3,5-Dichloro-N-(2-chloroethyl)-4-{[5-(3-methyl-5-isoxazolyl)pentyl]oxy}benzamide]	0.48 µg/mL (≈ 1.14 µM)	0.16 µg/mL (≈ 0.381 µM)	0.28 µg/mL
Cc1cc(CCCCCCc2c(Cl)cc(C3=NCCO3)cc2Cl)on1 [163(b), 5-{6-[2,6-Dichloro-4-(4,5-dihydro-2-oxazolyl)phenyl]hexyl}-3-methylisoxazole]	1.4 µg/mL (≈ 3.67 µM)	0.49 µg/mL (≈ 1.29 µM)	0.73 µg/mL
Cc1cc(CCCCCCOc2ccc(C3=NCCO3)cc2Cl)on1 [Example 16, 5-{-[26-Chloro-4-(4,5-dihydro-2-oxazolyl)phenoxy]hexyl}-3-methylisoxazole]	0.13 µg/mL (≈ 0.358 µM)	0.08 µg/mL (≈ 0.22 µM)	0.43 µg/mL
Cc1cc(CCCCCOc2ccc(C3=NCCO3)cc2F)on1 [Example 20, 5-{5-[4-(4,5-Dihydro-2-oxazolyl)-2-fluorophenoxy]pentyl}-3-methylisoxazole]	0.1 µg/mL (≈ 0.301 µM)	0.38 µg/mL (≈ 1.14 µM)	26.9 µg/mL
Cc1cc(CCCCOc2ccc(C3=NCCO3)cc2Cl)on1 [Example 24, 5-{4-[2-Chloro-4-(4,5-dihydro-2-oxazolyl)phenoxy]butyl}-3-methylisoxazole]	1.7 µg/mL (≈ 5.08 µM)	0.087 µg/mL (≈ 0.26 µM)	1.2 µg/mL
Cc1cc(CCCCCOc2ccc(C3=NC(C)CO3)cc2Cl)on1 (stereo not drawn) [Example 32, 5-{5-[2-Chloro-4-(4,5-dihydro-4-methyl-2-oxazolyl)phenoxy]pentyl}-3-methylisoxazole]	1.3 µg/mL (≈ 3.58 µM)	0.09 µg/mL (≈ 0.248 µM)	0.27 µg/mL
Cc1cc(CCCCCCCOc2ccc(C3=NC(CO)CO3)cc2)on1 (stereo not drawn) [Example 33, 5-{7-[4-(4,5-Dihydro-4-hydroxymethyl-2-oxazolyl)phenoxy]heptyl}-3-methylisoxazole]	3 µg/mL (≈ 8.05 µM)	51 µg/mL (≈ 137 µM)	99 µg/mL
Cc1noc(CCCCCCCOc2ccc(C3=NCCO3)cc2)c1CCl [Example 35, 4-Chloromethyl-5-{7-[4-(4,5-dihydro-2-oxazolyl)phenoxy]heptyl}-3-methylisoxazole]	0.05 µg/mL (≈ 0.128 µM)	1.39 µg/mL (≈ 3.54 µM)	1.8 µg/mL
COc1cc(C2=NCCO2)ccc1OCCCCCc1cc(C)no1 [Example 42, 5-{5-[4-(4,5-Dihydro-2oxazolyl)-2-methoxyphenoxy]pentyl}-3-methylisoxazole]	0.12 µg/mL (≈ 0.348 µM)	0.35 µg/mL (≈ 1.02 µM)	0.64 µg/mL
Cc1noc(CCCCCCCOc2ccc(C3=NCCO3)cc2Cl)c1CO [Example 43]	0.3 µg/mL (≈ 0.737 µM)	0.31 µg/mL (≈ 0.762 µM)	1 µg/mL
Cc1cc(CCCCCOc2ccc(C3=NCCO3)cc2Br)on1 [Example 44, 5-{5-[2-Bromo-4-(4,5-dihydro-2-oxazolyl)phenoxy]pentyl}-3-methylisoxazole]	0.3 µg/mL (≈ 0.763 µM)	0.08 µg/mL (≈ 0.203 µM)	0.54 µg/mL
Cc1cc(CCCCCCCOc2ccc(C3=NCCO3)cc2Br)on1 [Example 45, 5-{7-[2-Bromo-4(4,5-dihydro-2-oxazolyl)phenoxy]heptyl}-3-methylisoxazole]	0.5 µg/mL (≈ 1.19 µM)	0.16 µg/mL (≈ 0.38 µM)	0.7 µg/mL

SMILES	MIC (Polio 2)	MIC50 [1]	IC (MIC80 of serotype panel) [1]
Cc1cc(CCCCCOc2ccc(C3=NCCO3)cc2C)on1 [Example 46, 5-{5-[4-(4,5-Dihydro-2-oxazolyl)-2-methylphenoxy]pentyl}-3-methylisoxazole]	0.1 µg/mL (≈ 0.304 µM)	0.09 µg/mL (≈ 0.274 µM)	0.2 µg/mL
Cc1cc(CCCCCOc2ccc(C3=NCCO3)c(Cl)c2)on1 [Example 47, 5-{5-[3-Chloro-4-(4,5-dihydro-2-oxazolyl)phenoxy]pentyl}-3-methylisoxazole]	0.02 µg/mL (≈ 0.0573 µM)	0.36 µg/mL (≈ 1.03 µM)	2.4 µg/mL
Cc1cc(CCCCCCOc2ccc(C3=NC(C)CO3)cc2Cl)on1 (stereo not drawn) [Example 48, 5-{6-[2-Chloro-(4,5-dihydro-4-methyl-2-oxazolyl)phenoxy]hexyl}-3-methylisoxazole]	2.3 µg/mL (≈ 6.1 µM)	0.13 µg/mL (≈ 0.345 µM)	0.37 µg/mL
Cc1cc(CCCCCOc2ccc(C3=NCCO3)cc2N)on1 [Example 49, 5-{5-[2-Amino-4-(4,5-dihydro-2-oxazoyl)phenoxy]pentyl}-3-methylisoxazole]	2 µg/mL (≈ 6.07 µM)	1.1 µg/mL (≈ 3.34 µM)	4.6 µg/mL
Cc1cc(CCCCCCCOc2ccc(C3=NCCO3)c(Cl)c2)on1 [Example 50, 5-{7-[3-Chloro-4(4,5-dihydro-2-oxazolyl)phenoxy]heptyl}-3-methylisoxazole]	0.7 µg/mL (≈ 1.86 µM)	5.05 µg/mL (≈ 13.4 µM)	99 µg/mL
Cc1cc(CCCCCOc2ccc(C3=NCCO3)c(C)c2)on1 [Example 51, 5-{5-[4-(4,5-Dihydro-2oxazolyl)-3-methylphenoxy]pentyl}-3-methylisoxazole]	0.045 µg/mL (≈ 0.137 µM)	0.56 µg/mL (≈ 1.71 µM)	1.6 µg/mL
Cc1cc(CCCCCOc2ccc(C3=NCCO3)c(O)c2)on1 [Example 52, 5-{5-[4-(4,5-Dihydro-2-oxazolyl)-3-hydroxyphenoxy]pentyl}-3-methylisoxazole]	0.003 µg/mL (≈ 0.00908 µM)	0.084 µg/mL (≈ 0.254 µM)	1.9 µg/mL
Cc1cc(CCCCCOc2ccc(C3=NCCO3)cc2[N+](=O)[O-])on1 [Example 53, 5-{5-[4-(4,5-Dihydro-2-oxazolyl)-2-nitrophenoxy]pentyl}-3-methylisoxazole]	0.08 µg/mL (≈ 0.223 µM)	0.087 µg/mL (≈ 0.242 µM)	0.64 µg/mL
Cc1cc(CCCCCOc2ccc(C3=NCCO3)cc2C(F)(F)F)on1 [Example 54, 5-{5-[4-(4,5-Dihydro-2-oxazolyl)-2-trifluoromethylphenoxy]pentyl}-3-methylisoxazole]	1.3 µg/mL (≈ 3.4 µM)	0.08 µg/mL (≈ 0.209 µM)	0.42 µg/mL
Cc1cc(CCCCCOc2ccc(C3=NC(C)CO3)cc2)on1 (stereo not drawn) [Example 56, 5-{5-[4-(4,5-Dihydro-4-methyl-2-oxazolyl)phenoxy]pentyl}-3-methylisoxazole]	0.07 µg/mL (≈ 0.213 µM)	0.164 µg/mL (≈ 0.499 µM)	25.3 µg/mL
Cc1cc(CCCCCCCOc2ccc(C3=NCCO3)c(O)c2)on1 [Example 59, 5-{7-[4-(4,5-Dihydro-2-oxazolyl)-3-hydroxyphenoxy]heptyl}-3-methylisoxazole]	0.04 µg/mL (≈ 0.112 µM)	0.435 µg/mL (≈ 1.21 µM)	25.2 µg/mL
CCc1cc(C2=NCCO2)ccc1OCCCCCc1cc(C)no1 [Example 60, 5-{5-[4-(4,5-Dihydro-2-oxazolyl)-2-ethylphenoxy]pentyl}-3-methylisoxazole]	0.24 µg/mL (≈ 0.701 µM)	0.1 µg/mL (≈ 0.292 µM)	0.7 µg/mL
C=CCc1cc(C2=NCCO2)ccc1OCCCCCc1cc(C)no1 [Example 61, 5-{5-[4-(4,5-Dihydro-2-oxazolyl)-2-(2-propenyl)phenoxy]pentyl}-3-methylisoxazole]	0.54 µg/mL (≈ 1.52 µM)	0.39 µg/mL (≈ 1.1 µM)	0.75 µg/mL
Cc1cc(CCCCCOc2ccc(C3=NC(C)(C)CO3)cc2)on1 [Example 62, 5-{5-[4-(4,5-Dihydro-4,4-dimethyl-2-oxazolyl)phenoxy]pentyl}-3-methylisoxazole]	0.51 µg/mL (≈ 1.49 µM)	1.5 µg/mL (≈ 4.38 µM)	2.4 µg/mL
CC(=O)c1cc(C2=NCCO2)ccc1OCCCCCc1cc(C)no1 [Example 63, 5-{5-[4-(4,5-Dihydro-2-oxazolyl)-2-acetylphenoxy]pentyl}-3-methylisoxazole]	2.3 µg/mL (≈ 6.45 µM)	0.55 µg/mL (≈ 1.54 µM)	1.05 µg/mL
Cc1cc(CCCCOc2ccc(C3=NC(C)CO3)cc2)on1 (stereo not drawn) [Example 64, 5-{4-[4-(4,5-Dihydro-4-methyl-2-oxazoly)phenoxy]butyl}-3-methylisoxazole]	2.4 µg/mL (≈ 7.63 µM)	0.485 µg/mL (≈ 1.54 µM)	25.6 µg/mL
